Test results: ChEMBL document CHEMBL1201862, “PubChem BioAssay data set” (2004)
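Values below derive from 48-hour exposures of cells grown in 96-well plates, with endpoints linearly interpolated between the two concentrations bracketing the appropriate inhibition level. At the GI50, growth is halved.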 Activity calls are given as the source filed them. No stated cut-off is given here; in the data, active = GI50 up to about 1.1 µM and inactive = higher.

Assays:
Assay in all cases: NCI-60 cell line screen, 48 h
UACC-257 = test system: UACC-257
HOP-62 = test system: HOP-62
SNB-75 = test system: SNB-75
OVCAR-4 = test system: OVCAR-4
HCT-15 = test system: HCT-15
SN12C = test system: SN12C
RPMI-8226 = test system: RPMI-8226
A549 = test system: A549
RXF 393 = test system: RXF 393
786-0 = test system: 786-0
NCI-H460 = test system: NCI-H460
HT-29 = test system: HT-29
SK-MEL-2 = test system: SK-MEL-2
OVCAR-5 = test system: OVCAR-5
Malme-3M = test system: Malme-3M
OVCAR-8 = test system: OVCAR-8
SK-OV-3 = test system: SK-OV-3
SF-268 = test system: SF-268
DLD-1 = test system: DLD-1
CCRF-CEM = test system: CCRF-CEM
MOLT-4 = test system: MOLT-4
CAKI-1 = test system: CAKI-1
UACC-62 = test system: UACC-62
SK-MEL-5 = test system: SK-MEL-5
COLO 205 = test system: COLO 205
EKVX = test system: EKVX
SK-MEL-28 = test system: SK-MEL-28
SNB-19 = test system: SNB-19
NCI-H23 = test system: NCI-H23
TK-10 = test system: TK-10
SNB-78 = test system: SNB-78
SF-539 = test system: SF-539
HL-60 = test system: HL-60
K562 = test system: K562
LOX IMVI = test system: LOX IMVI
SW-620 = test system: SW-620
XF498 = test system: XF498
HOP-92 = test system: HOP-92
OVCAR-3 = test system: OVCAR-3
ACHN = test system: ACHN
HCC 2998 = test system: HCC 2998
IGROV-1 = test system: IGROV-1
KM12 = test system: KM12
LXFL 529 = test system: LXFL 529
A498 = test system: A498
SF-295 = test system: SF-295
UO-31 = test system: UO-31
NCI-H522 = test system: NCI-H522
M14 = test system: M14
DMS-273 = test system: DMS-273
M19-MEL = test system: M19-MEL
KM-20L2 = test system: KM-20L2
HOP-18 = test system: HOP-18
SR = test system: SR
U-251 = test system: U-251
NCI-H226 = test system: NCI-H226
HCT-116 = test system: HCT-116

## CC1(c2ccc(Cl)cc2)C2C(=O)NC(=O)C1C(=O)NC2=O (stereo unspecified)
UACC-257
  GI50: > 100 µM (inactive)
HOP-62
  GI50: > 100 µM (inactive)
SNB-75
  GI50: > 100 µM (inactive)
OVCAR-4
  GI50: > 100 µM (inactive)
HCT-15
  GI50: > 100 µM
SN12C
  GI50: > 100 µM (inactive)
RPMI-8226
  GI50: > 100 µM (inactive)
A549
  GI50: > 100 µM (inactive)
RXF 393
  GI50: > 100 µM (inactive)
786-0
  GI50: > 100 µM (inactive)
NCI-H460
  GI50: > 100 µM (inactive)
HT-29
  GI50: > 100 µM (inactive)
SK-MEL-2
  GI50: > 100 µM (inactive)
OVCAR-5
  GI50: > 100 µM (inactive)
Malme-3M
  GI50: > 100 µM (inactive)
OVCAR-8
  GI50: > 100 µM (inactive)
SK-OV-3
  GI50: > 100 µM (inactive)
SF-268
  GI50: > 100 µM (inactive)
DLD-1
  GI50: > 100 µM (inactive)
CCRF-CEM
  GI50: > 100 µM (inactive)
MOLT-4
  GI50: > 100 µM (inactive)
CAKI-1
  GI50: > 100 µM (inactive)
UACC-62
  GI50: > 100 µM (inactive)
SK-MEL-5
  GI50: > 100 µM (inactive)
COLO 205
  GI50: > 100 µM (inactive)
EKVX
  GI50: > 100 µM (inactive)
SK-MEL-28
  GI50: > 100 µM (inactive)
SNB-19
  GI50: > 100 µM (inactive)
NCI-H23
  GI50: > 100 µM (inactive)
TK-10
  GI50: > 100 µM (inactive)
SNB-78
  GI50: > 100 µM (inactive)
SF-539
  GI50: > 100 µM (inactive)
HL-60
  GI50: > 100 µM (inactive)
K562
  GI50: > 100 µM (inactive)
LOX IMVI
  GI50: > 100 µM (inactive)
SW-620
  GI50: > 100 µM (inactive)
XF498
  GI50: > 100 µM (inactive)
HOP-92
  GI50: > 100 µM (inactive)
OVCAR-3
  GI50: > 100 µM (inactive)
ACHN
  GI50: > 100 µM (inactive)
HCC 2998
  GI50: > 100 µM (inactive)
IGROV-1
  GI50: > 100 µM (inactive)
KM12
  GI50: > 100 µM (inactive)
LXFL 529
  GI50: > 100 µM (inactive)
A498
  GI50: > 100 µM (inactive)
SF-295
  GI50: > 100 µM (inactive)
UO-31
  GI50: > 100 µM (inactive)
NCI-H522
  GI50: > 100 µM (inactive)
M14
  GI50: > 100 µM (inactive)
DMS-273
  GI50: > 100 µM (inactive)
M19-MEL
  GI50: > 100 µM (inactive)
KM-20L2
  GI50: 56.5 µM (inactive)

## COc1ccc(/C(Cl)=C(\CN(C)C)c2ccc(OC)c(OC)c2)cc1OC.[B]
UACC-257
  GI50: > 100 µM (inactive)
HOP-62
  GI50: 24.3 µM (inactive)
SNB-75
  GI50: 2.5 µM (inactive)
HOP-18
  GI50: > 100 µM (inactive)
OVCAR-4
  GI50: 1.19 µM (inactive)
HCT-15
  GI50: > 100 µM
SN12C
  GI50: > 100 µM (inactive)
RPMI-8226
  GI50: > 100 µM (inactive)
A549
  GI50: > 100 µM (inactive)
RXF 393
  GI50: 15.7 µM (inactive)
786-0
  GI50: 15.9 µM (inactive)
NCI-H460
  GI50: > 100 µM (inactive)
HT-29
  GI50: > 100 µM (inactive)
OVCAR-5
  GI50: > 100 µM (inactive)
OVCAR-8
  GI50: > 100 µM (inactive)
SK-OV-3
  GI50: 14.2 µM (inactive)
SF-268
  GI50: > 100 µM (inactive)
DLD-1
  GI50: > 100 µM (inactive)
SR
  GI50: > 100 µM (inactive)
CCRF-CEM
  GI50: > 100 µM (inactive)
MOLT-4
  GI50: > 100 µM (inactive)
CAKI-1
  GI50: > 100 µM (inactive)
UACC-62
  GI50: 3.94 µM (inactive)
SK-MEL-5
  GI50: > 100 µM (inactive)
EKVX
  GI50: > 100 µM (inactive)
SNB-19
  GI50: 17 µM (inactive)
NCI-H23
  GI50: 95.1 µM (inactive)
TK-10
  GI50: 13.7 µM (inactive)
SNB-78
  GI50: 10.1 µM (inactive)
SF-539
  GI50: 4.72 µM (inactive)
HL-60
  GI50: > 100 µM (inactive)
K562
  GI50: > 100 µM (inactive)
LOX IMVI
  GI50: > 100 µM (inactive)
SW-620
  GI50: > 100 µM (inactive)
HOP-92
  GI50: 2.22 µM (inactive)
ACHN
  GI50: > 100 µM (inactive)
U-251
  GI50: 8.61 µM (inactive)
HCC 2998
  GI50: > 100 µM (inactive)
IGROV-1
  GI50: > 100 µM (inactive)
KM12
  GI50: > 100 µM (inactive)
LXFL 529
  GI50: > 100 µM (inactive)
A498
  GI50: 33.9 µM (inactive)
SF-295
  GI50: 12.7 µM (inactive)
UO-31
  GI50: > 100 µM (inactive)
NCI-H226
  GI50: > 100 µM (inactive)
HCT-116
  GI50: 38.8 µM (inactive)
M14
  GI50: > 100 µM (inactive)
DMS-273
  GI50: 2.34 µM (inactive)
KM-20L2
  GI50: > 100 µM (inactive)
